Reference: the NIST ThermoML archive (doi:10.1016/j.jct.2016.02.016)

How the values were obtained:
[1] = refractive index (Na D-line) (dimensionless); xn = mol fraction of the nth substance listed; conditions: 100 kPa, Liquid, Standard Abbe refractometry
[2] = xn = mol fraction of the nth substance listed; conditions: 100 kPa, Liquid; for speed of sound: Frequency=3 MHz, Sing-around technique in a fixed-path interferometer; for mass density: Vibrating tube method

CCC(C)=O [butanone] + CN(C)C=O
Conditions | mass density, [2] [kg/m3] | refractive index, [1] | speed of sound, [2] [m/s]
293.15 K, x2 = 0 | 805.06 | 1.37872 | 1212.6
293.15 K, x2 = 0.0482 | 811.508 | 1.3812 | 1224.5
293.15 K, x2 = 0.1051 | 819.281 | 1.3841 | 1238.6
293.15 K, x2 = 0.148 | 825.263 | 1.38629 | 1249.6
293.15 K, x2 = 0.1915 | 831.169 | 1.38843 | 1262.8
293.15 K, x2 = 0.253 | 839.789 | 1.39163 | 1276.1
293.15 K, x2 = 0.3008 | 846.349 | 1.39408 | 1288.2
293.15 K, x2 = 0.3386 | 851.673 | 1.39604 | 1298
293.15 K, x2 = 0.3915 | 859.222 | 1.39872 | 1311.8
293.15 K, x2 = 0.4432 | – | 1.40144 | –
293.15 K, x2 = 0.4887 | 873.095 | 1.40384 | 1337.4
293.15 K, x2 = 0.5514 | 882.097 | – | 1354.1
293.15 K, x2 = 0.5536 | – | 1.40712 | –
293.15 K, x2 = 0.6017 | 889.386 | 1.40972 | 1367.5
293.15 K, x2 = 0.6519 | 896.759 | 1.41237 | 1381.2
293.15 K, x2 = 0.7023 | 904.135 | 1.41495 | 1394.9
293.15 K, x2 = 0.7525 | 911.634 | 1.41752 | 1408.8
293.15 K, x2 = 0.8002 | 918.668 | 1.42009 | 1421.7
293.15 K, x2 = 0.8492 | 926.05 | 1.42274 | 1435.2
293.15 K, x2 = 0.9032 | 934.175 | 1.42553 | 1450.2
293.15 K, x2 = 0.9477 | 940.9 | 1.42785 | 1462.4
298.15 K, x2 = 0 | 799.78 | 1.37605 | 1191.5
298.15 K, x2 = 0.0519 | 806.811 | 1.37886 | 1204.4
298.15 K, x2 = 0.1048 | 814.011 | 1.38152 | 1217.5
298.15 K, x2 = 0.1506 | 820.379 | 1.38397 | 1229.3
298.15 K, x2 = 0.1948 | 826.51 | 1.38631 | 1240.5
298.15 K, x2 = 0.2482 | 834.008 | 1.38913 | 1254.4
298.15 K, x2 = 0.3032 | 841.593 | 1.39213 | 1268.4
298.15 K, x2 = 0.3543 | 848.769 | 1.39479 | 1281.6
298.15 K, x2 = 0.3962 | 854.829 | 1.39697 | 1292.8
298.15 K, x2 = 0.4495 | 862.429 | 1.39982 | 1306.9
298.15 K, x2 = 0.4916 | 868.442 | 1.40199 | 1318
298.15 K, x2 = 0.5536 | 877.384 | 1.40522 | 1334.6
298.15 K, x2 = 0.5946 | 883.427 | 1.40739 | 1345.8
298.15 K, x2 = 0.6572 | 892.579 | 1.41063 | 1362.3
298.15 K, x2 = 0.7034 | 899.388 | 1.41301 | 1375.5
298.15 K, x2 = 0.7461 | 905.863 | 1.41516 | 1387.6
298.15 K, x2 = 0.7965 | 913.261 | 1.41779 | 1401.3
298.15 K, x2 = 0.8488 | 921.083 | 1.42048 | 1415.8
298.15 K, x2 = 0.894 | 928.027 | 1.42276 | 1428.6
298.15 K, x2 = 0.9427 | 935.405 | 1.42542 | 1442.1
303.15 K, x2 = 0 | 794.55 | 1.37351 | 1172
303.15 K, x2 = 0.0496 | 801.341 | 1.37623 | 1184.6
303.15 K, x2 = 0.1068 | 809.288 | 1.37911 | 1199.1
303.15 K, x2 = 0.1478 | 814.925 | 1.38113 | 1209.5
303.15 K, x2 = 0.1836 | 819.8 | 1.38314 | 1218.5
303.15 K, x2 = 0.2521 | 829.427 | 1.38686 | 1236.4
303.15 K, x2 = 0.2943 | 835.351 | 1.38911 | 1248.2
303.15 K, x2 = 0.3532 | 843.706 | 1.39202 | 1262.8
303.15 K, x2 = 0.3938 | 849.516 | 1.39409 | 1273.5
303.15 K, x2 = 0.4538 | 858.11 | 1.39728 | 1289.4
303.15 K, x2 = 0.4969 | 864.319 | 1.39967 | 1301.1
303.15 K, x2 = 0.5486 | 871.924 | 1.40242 | 1315.5
303.15 K, x2 = 0.6028 | 879.882 | 1.40517 | 1330.1
303.15 K, x2 = 0.6517 | 886.955 | 1.4078 | 1343.2
303.15 K, x2 = 0.7023 | 894.541 | 1.4105 | 1357.4
303.15 K, x2 = 0.7483 | 901.328 | 1.41287 | 1369.9
303.15 K, x2 = 0.7995 | 908.942 | 1.41553 | 1384.1
303.15 K, x2 = 0.8514 | 916.844 | 1.41823 | 1399
303.15 K, x2 = 0.8982 | 923.832 | 1.42066 | 1410.9
303.15 K, x2 = 0.946 | 931.082 | 1.4232 | 1425.2
